Experimental data: US20240158446A1, “CYCLIC COMPOUND HAVING SELECTIVE INHIBITORY ACTION ON KRAS OVER HRAS AND NRAS” (CHUGAI SEIYAKU KABUSHIKI KAISHA, priority 2021, published 2024)
Like-named read-outs stand apart in the source and are kept apart here.

Key:
[1] = biological target: GDP-bound KRAS wild-type protein (Homo sapiens, UniProt P01116); assay: Binding to KRAS by surface plasmon resonance (SPR), Single Cycle Kinetics; details: SPR, Single Cycle Kinetics
[2] = biological target: GDP-bound NRAS wild-type protein (Homo sapiens, UniProt P01111); assay: Binding to NRAS by surface plasmon resonance (SPR), Single Cycle Kinetics; details: SPR; for NRAS/KRAS (ratio of KD value for NRAS to KD value for KRAS): GDP-bound NRAS wild-type protein vs GDP-bound KRAS wild-type protein
[3] = biological target: GDP-bound HRAS wild-type protein (Homo sapiens, UniProt P01112); assay: Binding to HRAS by surface plasmon resonance (SPR), Single Cycle Kinetics; details: SPR; for HRAS/KRAS (ratio of KD value for HRAS to KD value for KRAS): GDP-bound HRAS wild-type protein vs GDP-bound KRAS wild-type protein
[4] = test system: human lung cancer strain NCI-H441; details: read-out: NCI-H441 cell proliferation inhibitory activity, 50% proliferation inhibitory concentration (IC50 value); NCI-H441, four days, CellTiter-Glo;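 further: cell proliferation inhibition after four days measured by CellTiter-Glo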
[5] = 1:1 binding model, read-out: KD value with respect to GDP-bound KRAS wild-type protein
[6] = GDP-bound KRAS wild-type protein, read-out: KRAS KD

Chain of GDP-bound NRAS wild-type protein (P01111 whole entry): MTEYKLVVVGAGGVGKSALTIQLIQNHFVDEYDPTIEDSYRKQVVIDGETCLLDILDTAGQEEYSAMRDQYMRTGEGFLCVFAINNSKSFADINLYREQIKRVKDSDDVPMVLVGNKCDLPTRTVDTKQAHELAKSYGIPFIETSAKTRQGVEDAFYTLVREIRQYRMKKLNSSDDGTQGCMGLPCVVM
Chain of GDP-bound HRAS wild-type protein (P01112 whole entry): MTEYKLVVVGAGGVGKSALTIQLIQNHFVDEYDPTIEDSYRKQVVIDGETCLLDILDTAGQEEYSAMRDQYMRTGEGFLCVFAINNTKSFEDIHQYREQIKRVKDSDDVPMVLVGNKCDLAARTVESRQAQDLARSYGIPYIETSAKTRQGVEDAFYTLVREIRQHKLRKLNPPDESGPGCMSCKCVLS
Chain of GDP-bound KRAS wild-type protein (P01116 whole entry): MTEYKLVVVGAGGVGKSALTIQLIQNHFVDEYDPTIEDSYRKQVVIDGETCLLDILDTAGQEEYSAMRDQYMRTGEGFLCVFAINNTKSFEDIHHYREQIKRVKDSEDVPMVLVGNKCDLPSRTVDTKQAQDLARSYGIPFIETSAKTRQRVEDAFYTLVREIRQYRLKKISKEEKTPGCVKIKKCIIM

Row | Compound | Kd [1, 5] [nM] | Kd [1, 6] [nM] | NRAS/KRAS (ratio of KD value for NRAS to KD value for KRAS) [2] | ratio of the KD value with respect to GDP-bound NRAS wild-type protein to the KD value with respect to KRAS [2] | HRAS/KRAS (ratio of KD value for HRAS to KD value for KRAS) [3] | ratio of the KD value with respect to GDP-bound HRAS wild-type protein to the KD value with respect to KRAS [3] | IC50 [4] [nM]
1 | CCC[C@H]1C(=O)N[C@@H]([C@@H](C)CC)C(=O)N(C2CC2)CC(=O)N(C)[C@H]2C/C=C\CCN(C2=O)[C@@H](Cc2ccc(C)cc2)C(=O)N(C)CC(=O)N[C@@H](CCc2cc(F)c(C(F)(F)F)c(F)c2)C(=O)N2C[C@H](OCC)C[C@H]2C(=O)N(C)C2(CCC2)C(=O)N(C)[C@@H](C2CCCC2)C(=O)N(C)[C@H](C(=O)N2CCCC2)CC(=O)N1C [PP3113, (2S,8S,12R,14S,20S,23S,27S,30S,36S,38Z)-20-cyclopentyl-32-cyclopropyl-8-[2-[3,5-difluoro-4-(trifluoromethyl)phenyl]ethyl]-12-ethoxy-4,16,19,22,26,35-hexamethyl-30-[(1S)-1-methylpropyl]-27-propyl-2-(p-tolylmethyl)-23-(pyrrolidine-1-carbonyl)spiro[1,4,7,10,16,19,22,26,29,32,35-undecazatricyclo[34.5.1.0^10,14]dotetracont-38-ene-17,1′-cyclobutane]-3,6,9,15,18,21,25,28,31,34,42-undecone] | 0.17 | 0.17 | A (a compound having 10 or more and less than 20 is denoted as A) | A (a compound having 10 or more and less than 20 is denoted as A) | A (a compound having 10 or more and less than 20 is denoted as A) | A (a compound having 10 or more and less than 20 is denoted as A) | 6.1
2 | CCC[C@H]1C(=O)N[C@@H]([C@@H](C)CC)C(=O)N2CCC[C@H]2C(=O)N(C)[C@H]2C/C=C\CCN(C2=O)[C@@H](Cc2ccc(C(F)(F)F)cc2)C(=O)N(C)CC(=O)N[C@@H](CCc2cc(F)c(C(F)(F)F)c(F)c2)C(=O)N2C[C@H](OCC)C[C@H]2C(=O)N(C)C2(CCC2)C(=O)N(C)[C@@H](C2CCCC2)C(=O)N(C)[C@H](C(=O)N2CCCCC2)CC(=O)N1C [PP3114] | 4.5 | 4.5 | AA (a compound having 20 or more is denoted as AA) | AA (a compound having 20 or more is denoted as AA) | A (a compound having 10 or more and less than 20 is denoted as A) | A (a compound having 10 or more and less than 20 is denoted as A) | 14.7
3 | CCC[C@H]1C(=O)N[C@@H]([C@@H](C)CC)C(=O)N2CCC[C@H]2C(=O)N(C)[C@H]2C/C=C\CCN(C2=O)[C@@H](Cc2ccc(C)cc2)C(=O)N(C)CC(=O)N[C@@H](CCc2cc(F)c(C(F)(F)F)c(F)c2)C(=O)N2C[C@H](OCC)C[C@H]2C(=O)N(C)C2(CCC2)C(=O)N(C)[C@@H](C2CCCC2)C(=O)N(C)[C@H](C(=O)N2CCCCC2)CC(=O)N1C [PP3115, (1S,4S,10S,13S,17S,20S,26S,28R,32S,38S,42Z)-20-cyclopentyl-32-[2-[3,5-difluoro-4-(trifluoromethyl)phenyl]ethyl]-28-ethoxy-2,14,18,21,24,36-hexamethyl-10-[(1S)-1-methylpropyl]-17-(piperidine-1-carbonyl)-13-propyl-38-(p-tolylmethyl)spiro[2,8,11,14,18,21,24,30,33,36,39-undecazatetracyclo[37.5.1.0^4,8.0^26,30]pentatetracont-42-ene-23,1′-cyclobutane]-3,9,12,15,19,22,25,31,34,37,45-undecone] | 2.6 | 2.6 | A (a compound having 10 or more and less than 20 is denoted as A) | A (a compound having 10 or more and less than 20 is denoted as A) | B (a compound having 3 or more and less than 10 is denoted as B) | B (a compound having 3 or more and less than 10 is denoted as B) | 5.7
4 | CCC[C@H]1C(=O)N[C@@H]([C@@H](C)CC)C(=O)N2CCC[C@H]2C(=O)N(C)[C@H]2C/C=C\CCN(C2=O)[C@@H](Cc2ccc(C(F)(F)F)cc2)C(=O)N(C)CC(=O)N[C@@H](CCc2cc(F)c(C(F)(F)F)c(F)c2)C(=O)N2C[C@H](OCC)C[C@H]2C(=O)N(C)C2(CCC2)C(=O)N(C)[C@@H](C2CCCC2)C(=O)N(C)[C@H](C(=O)N2CCCC2)CC(=O)N1C [PP3116] | 0.27 | 0.27 | A (a compound having 10 or more and less than 20 is denoted as A) | A (a compound having 10 or more and less than 20 is denoted as A) | A (a compound having 10 or more and less than 20 is denoted as A) | A (a compound having 10 or more and less than 20 is denoted as A) | 7.8
5 | CCC[C@H]1C(=O)N[C@@H]([C@@H](C)CC)C(=O)N2CCC[C@H]2C(=O)N(C)[C@H]2C/C=C\CCN(C2=O)[C@@H](Cc2ccc(C)cc2)C(=O)N(C)CC(=O)N[C@@H](CCc2cc(F)c(C(F)(F)F)c(F)c2)C(=O)N2C[C@H](OCC)C[C@H]2C(=O)N(C)C2(CCC2)C(=O)N(C)[C@@H](C2CCCC2)C(=O)N(C)[C@H](C(=O)N2CCCC2)CC(=O)N1C [PP3117, (1S,4S,10S,13S,17S,20S,26S,28R,32S,38S,42Z)-20-cyclopentyl-32-[2-[3,5-difluoro-4-(trifluoromethyl)phenyl]ethyl]-28-ethoxy-2,14,18,21,24,36-hexamethyl-10-[(1S)-1-methylpropyl]-13-propyl-38-(p-tolylmethyl)-17-(pyrrolidine-1-carbonyl)spiro[2,8,11,14,18,21,24,30,33,36,39-undecazatetracyclo[37.5.1.0^4,8.0^26,30]pentatetracont-42-ene-23,1′-cyclobutane]-3,9,12,15,19,22,25,31,34,37,45-undecone] | 0.15 | 0.15 | A (a compound having 10 or more and less than 20 is denoted as A) | A (a compound having 10 or more and less than 20 is denoted as A) | A (a compound having 10 or more and less than 20 is denoted as A) | A (a compound having 10 or more and less than 20 is denoted as A) | 2.6
